Values quoted from earlier work in patent publication US20240050950A1, “GRADIENT-BASED MICROFLUIDIC CIRCUIT, DEVICE, AND METHOD FOR PERFORMING AN ASSAY” (priority 2020, published 2024).
Structures can show the parent of a compound that is named as a salt. Where two headings read alike, the source gives them in different places. Numbered stars: 1 amine (or outer) side, 2 acyl side, 3 side chain; on linkers, the order of the positions; unused ones are H or OH. Bridge positions count the residues as written; N and C are the ends. Square brackets hold non-standard residues; d marks the D form. Peptide text beside a SMILES is read from it. I, II: the chains in the order shown. Actinocin(9to1) = Cc1c2oc3c(C)ccc(C(=O)[*:1])c3nc-2c(C(=O)[*:2])c(N)c1=O; Phe(ol) = N[C@H](CO)Cc1ccccc1; NMeV = CN[C@H](C(=O)O)C(C)C; Aib = CC(C)(N)C(=O)O; Sar = CNCC(=O)O

Conditions: cited from earlier work
[1] = Table 1, antimicrobial agents/drugs
[2] = Table 3, antifungal drugs and other molecules

Row | Molecule | Molar volume [1] | Molar volume (Table 2, anticancer drugs) | other results
1 | 4-Hydroxytamoxifen [4-Hydroxytamoxifen ((Z)-Afimoxifene)] | 354.6 ± 3.0 cm^3 | – | –
2 | OC[C@H]1NC[C@@H](O)[C@@H](O)[C@@H]1O [1-Deoxymannojirimycin] | 112.0 ± 3.0 cm^3 | – | –
3 | c1ccc2[nH]c(-c3cscn3)nc2c1 [2-(4-Thiazolyl)benzimidazole] | – | – | Molar volume [2]: 143.0 ± 3.0 cm^3
4 | C=CCc1ccc(O)c(-c2cc(CC=C)ccc2O)c1 [5,5′-Diallyl-2,2′-biphenyldiol] | – | – | Molar volume [2]: 240.4 ± 3.0 cm^3
5 | O=[N+]([O-])C1(Br)COCOC1 [5-Bromo-5-nitro-1,3-dioxane] | – | – | Molar volume [2]: 115.3 ± 5.0 cm^3
6 | Cc1c2oc3c(C)c(N)cc(C(=O)N[C@@H]4C(=O)N[C@H](C(C)C)C(=O)N5CCC[C@H]5C(=O)N(C)CC(=O)N(C)[C@@H](C(C)C)C(=O)O[C@@H]4C)c3nc-2c(C(=O)N[C@@H]2C(=O)N[C@H](C(C)C)C(=O)N3CCC[C@H]3C(=O)N(C)CC(=O)N(C)[C@@H](C(C)C)C(=O)O[C@@H]2C)c(N)c1=O [7-Aminoactinomycin D (7-ADD), 7-Aminoactinomycin D] | 877.3 ± 7.0 cm^3 | – | –
7 | CC(=O)OCC1=C(C(=O)O)N2C(=O)[C@@H](N)[C@H]2SC1 [7-Aminocephalosporanic acid (7-ACA), 7-Aminocephalosporanic acid] | 170.0 ± 5.0 cm^3 | – | –
8 | CC1=C(C(=O)O)N2C(=O)[C@@H](N)[C@H]2SC1 [7-Aminodesacetoxycephalosporanic acid] | 134.0 ± 5.0 cm^3 | – | –
9 | CC(=O)O[C@@]12CO[C@@H]1C[C@H](O)[C@@]1(C)C(=O)[C@H](O)C3=C(C)[C@@H](O)C[C@@](O)([C@@H](OC(=O)c4ccccc4)[C@H]21)C3(C)C [10-Deacetylbaccatin III] | 385.5 ± 5.0 cm^3 | – | –
10 | C=CCNC1=C2C[C@@H](C)C[C@H](OC)[C@H](O)[C@@H](C)/C=C(\C)[C@H](OC(N)=O)[C@@H](OC)/C=C\C=C(/C)C(=O)NC(=CC1=O)C2=O [17-(Allylamino)-17-demethoxygeldanamycin] | 483.3 ± 5.0 cm^3 | – | –
11 | CC1(C)S[C@@H]2[C@H](N)C(=O)N2[C@H]1C(=O)O [(+)-6-Aminopenicillanic acid (6-APA), (+)-6-Aminopenicillanic acid] | 142.0 ± 5.0 cm^3 | – | –
12 | CC[C@@]1(O)C(=O)OCc2c1cc1n(c2=O)Cc2cc3ccccc3nc2-1 [(S)-(+)-Camptothecin (Camptothecin), (S)-(+)-Camptothecin] | 230.2 ± 5.0 cm^3 | – | –
13 | CC(=O)O[C@H]1CC[C@@]2(C)C(=CC[C@@H]3[C@@H]2CC[C@]2(C)C(c4cccnc4)=CC[C@@H]32)C1 [Abiraterone acetate (Zytiga), Abiraterone acetate] | – | 343.0 ± 5.0 cm^3 | –
14 | Cc1c2oc3c(C)ccc(C(=O)N[C@@H]4C(=O)N[C@H](C(C)C)C(=O)N5CCC[C@H]5C(=O)N(C)CC(=O)N(C)[C@@H](C(C)C)C(=O)O[C@@H]4C)c3nc-2c(C(=O)N[C@@H]2C(=O)N[C@H](C(C)C)C(=O)N3CCC[C@H]3C(=O)N(C)CC(=O)N(C)[C@@H](C(C)C)C(=O)O[C@@H]2C)c(N)c1=O [Actinomycin D] (I: T[dV]P[Sar][NMeV] / II: T[dV]P[Sar][NMeV]; ester I:1-I:C, II:1-II:C; linker I:N-II:N via Actinocin(9to1)) | 880.6 ± 7.0 cm^3 | 880.6 ± 7.0 cm^3 | –
15 | CCCCC[C@H](CC(=O)NO)C(=O)N[C@H](C(=O)N1CCC[C@H]1CO)C(C)C [Actinonin] | 338.1 ± 3.0 cm^3 | – | –
16 | Nc1ncnc2c1ncn2[C@@H]1O[C@H](CO)[C@@H](O)[C@@H]1O [Adenine 9-β-D-arabinofuranoside] | 128.1 ± 7.0 cm^3 | – | –
17 | CO[C@H]1C[C@@H]2CC[C@@H](C)[C@@](O)(O2)C(=O)C(=O)N2CCCC[C@H]2C(=O)O[C@H]([C@H](C)C[C@@H]2CC[C@@H](OCCO)[C@H](OC)C2)CC(=O)[C@H](C)/C=C(\C)[C@@H](O)[C@@H](OC)C(=O)[C@H](C)C[C@H](C)/C=C/C=C/C=C/1C [Afinitor (Everolimus), Everolimus] | – | 811.2 ± 5.0 cm^3 | –
18 | CC(=O)NC(C)(C)C(=O)N1CCC[C@H]1C(=O)NC(C)(C)C(=O)N[C@@H](C)C(=O)NC(C)(C)C(=O)N[C@@H](C)C(=O)N[C@@H](CCC(N)=O)C(=O)NC(C)(C)C(=O)N[C@H](C(=O)NC(C)(C)C(=O)NCC(=O)N[C@@H](CC(C)C)C(=O)NC(C)(C)C(=O)N1CCC[C@H]1C(=O)N[C@H](C(=O)NC(C)(C)C(=O)NC(C)(C)C(=O)N[C@@H](CCC(=O)O)C(=O)N[C@@H](CCC(N)=O)C(=O)N[C@H](CO)Cc1ccccc1)C(C)C)C(C)C [Alamethicin] (Ac-[Aib]P[Aib]A[Aib]AQ[Aib]V[Aib]GL[Aib]PV[Aib][Aib]EQ[Phe(ol)]) | 1583.4 ± 3.0 cm^3 | – | –
19 | CC(C)Cn1cnc2c(N)nc3ccccc3c21 [Aldara (Imiquimod), Imiquimod] | – | 187.7 ± 7.0 cm^3 | –
20 | Nc1nc2[nH]cc(CCc3ccc(C(=O)N[C@@H](CCC(=O)O)C(=O)O)cc3)c2c(=O)[nH]1 [Alimta (Pemetrexed Disodium), Pemetrexed Disodium] | – | 268.0 ± 7.0 cm^3 | –
21 | COc1c(OCCCN2CCOCC2)ccc2c1N=C(NC(=O)c1cnc(N)nc1)N1CCN=C21 [Aliqopa (Copanlisib Hydrochloride), Copanlisib Hydrochloride] | – | 317.6 ± 7.0 cm^3 | –

Row | Molecule | Molar volume [1] | Molar volume (Table 2, anticancer drugs) | other results
22 | O=C1c2cccc3c2[C@H](CCC3)CN1[C@@H]1CN2CCC1CC2 [Aloxi (Palonosetron Hydrochloride), Palonosetron Hydrochloride] | – | 238.6 ± 5.0 cm^3 | –
23 | CC(C)C[C@@H](N)[C@H](O)C(=O)N[C@H](C(=O)N[C@H](C(=O)N[C@@H](CC(=O)O)C(=O)O)C(C)C)C(C)C [Amastatin] | 386.4 ± 3.0 cm^3 | – | –
24 | NCCCNCCSP(=O)(O)O [Amifostine] | – | 156.6 ± 3.0 cm^3 | –
25 | NCC[C@H](O)C(=O)N[C@@H]1C[C@H](N)[C@@H](O[C@H]2O[C@H](CN)[C@@H](O)[C@H](O)[C@H]2O)[C@H](O)[C@H]1O[C@H]1O[C@H](CO)[C@@H](O)[C@H](N)[C@H]1O [Amikacin] | 363.9 ± 5.0 cm^3 | – | –
26 | CC1(C)S[C@@H]2[C@H](NC(=O)[C@H](N)c3ccc(O)cc3)C(=O)N2[C@H]1C(=O)O [Amoxicillin] | 236.2 ± 5.0 cm^3 | – | –
27 | C[C@@H]1[C@H](O)[C@@H](C)/C=C/C=C/C=C/C=C/C=C/C=C/C=C/[C@H](O[C@@H]2O[C@H](C)[C@@H](O)[C@H](N)[C@@H]2O)C[C@@H]2O[C@](O)(C[C@@H](O)C[C@@H](O)[C@H](O)CC[C@@H](O)C[C@@H](O)CC(=O)O[C@H]1C)C[C@H](O)[C@H]2C(=O)O [Amphotericin B (Fungizone), Amphotericin B] | 689.4 ± 5.0 cm^3 | – | –
28 | CC(C)(C#N)c1cc(Cn2cncn2)cc(C(C)(C)C#N)c1 [Anastrozole] | – | 270.2 ± 7.0 cm^3 | –
29 | CC[C@H]1OC(=O)[C@H](C)[C@@H](O[C@H]2C[C@@](C)(OC)[C@@H](O)[C@H](C)O2)[C@H](C)[C@@H](O[C@@H]2O[C@H](C)C[C@H](N(C)C)[C@H]2O)[C@@]2(C)C[C@@H](C)[C@@]3(O[C@@]1(C)[C@H](O)[C@H]3C)O2 [Anhydroerythromycin A] | 590.7 ± 5.0 cm^3 | – | –
30 | COc1ccc(C[C@H]2NC[C@H](O)[C@H]2OC(C)=O)cc1 [Anisomycin (or, Flagecidin), Anisomycin] | 218.6 ± 5.0 cm^3 | – | –
31 | CNC(=O)c1ccc(N2C(=S)N(c3cnc(C#N)c(C(F)(F)F)c3)C(=O)C23CCC3)cc1F [Apalutamide] | – | 300.1 ± 5.0 cm^3 | –
32 | C[C@@]1(CO)[C@H](O)CC[C@@]2(C)[C@H]1CC[C@H]1C[C@@H]3C[C@@]12CC[C@]3(O)CO [Aphidicolin] | 275.9 ± 5.0 cm^3 | – | –
33 | COC[C@@H](C[C@H]1O[C@@](O)([C@H](O)[C@@H]2C[C@H](OC)[C@@H](O)CC/C=C(C)/C=C/[C@@H](O[C@@H]3O[C@@H](C)[C@H](OC)[C@@H](O)[C@@H]3O)[C@H](C)/C=C(C)/C=C(C)/C=C(\C)C(=O)O2)[C@H](C)[C@@H](O)[C@H]1C)OC1C[C@](C)(O)[C@@H](O[C@H]2C[C@@H](OC)[C@H](O)[C@@H](C)O2)[C@H](C)O1 (stereo partly drawn) [Apoptolidin (FU 40A), Apoptolidin] | 898.5 ± 5.0 cm^3 | – | –
34 | CN[C@@H]1[C@@H](O[C@H]2O[C@H](CO)[C@@H](N)[C@H](O)[C@H]2O)OC2C[C@@H](N)[C@@H](O[C@H]3[C@H](O)[C@@H](O)[C@H](N)C[C@@H]3N)OC2[C@@H]1O (stereo partly drawn) [Apramycin (Nebramycin II), Apramycin] | 344.4 ± 5.0 cm^3 | – | –
35 | C[C@@H](O[C@H]1OCCN(Cc2n[nH]c(=O)[nH]2)[C@H]1c1ccc(F)cc1)c1cc(C(F)(F)F)cc(C(F)(F)F)c1 [Aprepitant] | – | 353.5 ± 7.0 cm^3 | –
36 | C=C1C[C@@H]2[C@H](CC[C@]3(C)C(=O)CC[C@@H]23)[C@@]2(C)C=CC(=O)C=C12 [Aromasin (Exemestane), Exemestane] | – | 260.5 ± 5.0 cm^3 | –
37 | COc1nc(N)nc2c1ncn2[C@@H]1O[C@H](CO)[C@@H](O)[C@@H]1O [Arranon (Nelarabine), Nelarabine] | – | 149.8 ± 7.0 cm^3 | –
38 | CC(/C=C/[C@@]1(C)[C@H](C)CCC(=O)[C@@H]1C)=C\Cc1c(O)c(Cl)c(C)c(C=O)c1O [Ascochlorin (Ilicicolin D, NSC 287492), Ascochlorin] | 337.6 ± 3.0 cm^3 | – | –
39 | CC[C@@H]1/C=C(\C)C[C@H](C)C[C@H](OC)[C@H]2O[C@@](O)(C(=O)C(=O)N3CCCC[C@H]3C(=O)O[C@H](/C(C)=C/[C@@H]3CC[C@@H](O)[C@H](OC)C3)[C@H](C)[C@@H](O)CC1=O)[C@H](C)C[C@@H]2OC [Ascomycin (KD4185000), Ascomycin] | 661.8 ± 5.0 cm^3 | – | –
40 | N=C(N)NCc1cccc([131I])c1 [Azedra] | – | 148.6 ± 7.0 cm^3 | –
41 | CC[C@H]1OC(=O)[C@H](C)[C@@H](O[C@H]2C[C@@](C)(OC)[C@@H](O)[C@H](C)O2)[C@H](C)[C@@H](O[C@@H]2O[C@H](C)C[C@H](N(C)C)[C@H]2O)[C@](C)(O)C[C@@H](C)CN(C)[C@H](C)[C@@H](O)[C@]1(C)O [Azithromycin] | 632.6 ± 5.0 cm^3 | – | –
